Literature values as cited in US20020004046A1, “Combination therapy of respiratory diseases using antibodies” (priority 2000, published 2002).

Legend:
[1] = compared with untreated patients

NC(=O)c1ncn([C@@H]2O[C@H](CO)[C@@H](O)[C@H]2O)n1 [ribavirin]
level of secondary infection following cessation of treatment [1]: significantly higher
bioavailability (given orally): about 45%
time of peak concentrations in plasma (in vivo, po): 1 to 2 h
